Reference: patent US12624044B2, “SMARCA degraders and uses thereof” (Kymera Therapeutics, Inc., priority 2019, dated 2026)

Molecular target: SMARCA2 (Homo sapiens, UniProt P51531)
Test: MSD SMARCA2 degradation in A549 cell line
Assay type: cell-based
Details: 24 h; for Dmax: A549, A549 cells; for DC50: A549 cells, read-out: SMARCA2 MSD A549 degradation 24 h: Average external-Abs DC50
Procedure: Cells were seeded into 96-well plates (A549 cells: 2×10^4 cells/well/100 ul media) abd incubated overnight. The next day, 200 nl compound were added into the intermediate plate with Echo (Labcyte 550) from source plate containing a 3-fold serial dilution from top concentration of 1 mM. The culture medium was changed with 80 ul of fresh medium and 80 ul of 2× compound solution was added into the well to make a final concentration of 1000 nM, 333.3 nM, 111.1 nM, 37.04 nM, 12.35 nM, 4.115 nM, 1.372 nM, 0.457 nM, 0.152 nM and 0 nM (DMSO). The wells were mixed and then incubated for 24 hours. The media was aspirated from the cultures and 60 ul pre-chilled PIPA lysis buffer (Boston BioProducts BP-115D) with protease/phosphatase inhibitor (Roche 05892791001/Roche 04906837001) was added into the well to lyze the cells for 20 minutes at 4° C. The MSD plate (L15XA) was coated with 40 ul cell lysate and incubated at 4° C. overnight. The next day, the plate was washed three times with TBST (CST #9997S), 150 ul/well. The MSD plates was blocked with 150 ul blocking buffer per well and shaked for 1 hr at RT, 600 rpm. The blocking buffer was 3% Blocker A (MSD, R93BA-4) in TBST. The MSD plate was washed three times with 150 ul/well of TBST and 25 ul/well of detection antibody (Rabbit anti-SMARCA2/BRM antibody, 100 μg/ml, ab223735) was added at final concentration of 1 ug/ml diluted in 1% Blocking buffer and shaken for 1 hour at RT, 600 rpm. The MSD plate was washed three times with 150 ul/well of TBST and 25 ul/well of SULFO-TAG anti-rabbit antibody (MSD, R32AB-1) was added at final concentration of 1 ug/ml diluted in 1% Blocking buffer and shaken for 1 hour at RT, 600 rpm. The MSD plate was washed three times with 150 ul/well of TBST and 150 ul/well of 2×MSD reading buffer diluted from 4× (MSD, R92TC-2) with water was added. Lastly, the MSD instrument was read.
The letter codes for the percentage of SMARCA2 degradation after 24 hours (Dmax %) include: A (>90% degradation), B (>70-90% degradation), C (50-70% degradation), and D (<50% degradation).

Chain of SMARCA2 (P51531 whole entry): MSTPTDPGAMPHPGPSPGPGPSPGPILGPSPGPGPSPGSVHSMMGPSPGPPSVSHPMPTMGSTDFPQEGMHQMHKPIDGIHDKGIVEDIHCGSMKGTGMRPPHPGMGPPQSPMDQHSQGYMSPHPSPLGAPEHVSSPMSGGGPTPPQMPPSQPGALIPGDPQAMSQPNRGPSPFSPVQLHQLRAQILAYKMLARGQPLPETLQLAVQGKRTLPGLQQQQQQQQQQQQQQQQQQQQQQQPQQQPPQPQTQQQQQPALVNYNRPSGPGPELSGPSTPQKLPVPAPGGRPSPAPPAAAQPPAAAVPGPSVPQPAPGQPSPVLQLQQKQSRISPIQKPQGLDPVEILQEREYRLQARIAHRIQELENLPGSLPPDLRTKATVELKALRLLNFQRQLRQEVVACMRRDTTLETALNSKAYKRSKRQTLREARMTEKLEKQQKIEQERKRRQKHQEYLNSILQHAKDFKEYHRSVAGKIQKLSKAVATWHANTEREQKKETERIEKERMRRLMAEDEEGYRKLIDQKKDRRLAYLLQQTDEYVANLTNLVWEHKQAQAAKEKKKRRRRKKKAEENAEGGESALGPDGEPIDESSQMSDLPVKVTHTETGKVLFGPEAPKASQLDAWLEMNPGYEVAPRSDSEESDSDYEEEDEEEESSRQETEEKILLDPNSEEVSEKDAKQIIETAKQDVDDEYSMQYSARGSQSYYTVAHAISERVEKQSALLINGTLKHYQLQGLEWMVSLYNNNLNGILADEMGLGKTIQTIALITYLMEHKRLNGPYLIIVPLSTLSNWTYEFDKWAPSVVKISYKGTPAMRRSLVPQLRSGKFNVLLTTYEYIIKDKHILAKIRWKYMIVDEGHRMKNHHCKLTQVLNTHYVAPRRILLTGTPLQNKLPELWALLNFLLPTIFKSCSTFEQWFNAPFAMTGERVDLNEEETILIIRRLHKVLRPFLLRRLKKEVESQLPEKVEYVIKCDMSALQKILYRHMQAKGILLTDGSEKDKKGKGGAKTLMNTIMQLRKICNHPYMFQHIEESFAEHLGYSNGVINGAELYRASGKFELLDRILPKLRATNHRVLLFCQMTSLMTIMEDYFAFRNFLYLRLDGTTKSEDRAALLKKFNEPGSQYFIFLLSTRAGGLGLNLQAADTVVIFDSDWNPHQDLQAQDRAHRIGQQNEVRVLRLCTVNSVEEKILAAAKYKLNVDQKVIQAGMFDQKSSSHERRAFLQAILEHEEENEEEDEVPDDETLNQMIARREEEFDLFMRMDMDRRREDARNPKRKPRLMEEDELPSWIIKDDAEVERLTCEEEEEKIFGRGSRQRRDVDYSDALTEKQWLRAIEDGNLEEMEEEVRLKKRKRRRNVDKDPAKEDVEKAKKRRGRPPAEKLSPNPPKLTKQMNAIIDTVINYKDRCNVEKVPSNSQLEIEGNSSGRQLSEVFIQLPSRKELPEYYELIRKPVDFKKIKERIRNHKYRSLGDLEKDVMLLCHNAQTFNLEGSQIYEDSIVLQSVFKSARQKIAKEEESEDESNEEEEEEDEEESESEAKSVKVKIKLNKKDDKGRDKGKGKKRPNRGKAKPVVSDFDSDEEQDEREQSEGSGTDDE

SMILES | Dmax [%] | DC50 [nM]
CN(CCCOCCCc1cccc2c1n(C)c(=O)n2C1CCC(=O)NC1=O)Cc1cccc(C#Cc2cc(NC(=O)Nc3cc(F)ncc3CO)ccn2)c1 (stereo not shown) [I-312] | < 50 | > 1000
Cn1c(=O)n(C2CCC(=O)NC2=O)c2cccc(CN3CCC(OC4CCN(Cc5cccc(C#Cc6cc(NC(=O)Nc7cc(F)ncc7CO)ccn6)c5)CC4)CC3)c21 (stereo not shown) [I-313] | < 50 | > 1000
Cn1c(=O)n(C2CCC(=O)NC2=O)c2ccc(CCCOCCCCN3CCN(Cc4cccc(C#Cc5cc(NC(=O)Nc6cc(F)ncc6CO)ccn5)c4)CC3)cc21 (stereo not shown) [I-314] | < 50 | > 1000
Cn1c(=O)n(C2CCC(=O)NC2=O)c2cccc(CCCOC3CCN(Cc4cccc(C#Cc5cc(NC(=O)Nc6cc(F)ncc6CO)ccn5)c4)CC3)c21 (stereo not shown) [I-315] | < 50 | > 1000
CN(Cc1cccc(C#Cc2cc(NC(=O)Nc3cc(F)ncc3CO)ccn2)c1)CC1CCN(Cc2cccc3c2n(C)c(=O)n3C2CCC(=O)NC2=O)CC1 (stereo not shown) [I-316] | < 50 | > 1000
O=C1CCC(n2c(=O)oc3c(CCCOC4CCN(Cc5cccc(C#Cc6cc(NC(=O)Nc7cc(F)ncc7CO)ccn6)c5)CC4)cccc32)C(=O)N1 (stereo not shown) [I-317] | < 50 | > 1000
CN(Cc1cccc(C#Cc2cc(NC(=O)Nc3cc(F)ncc3CO)ccn2)c1)C1CCN(Cc2cccc3c2n(C)c(=O)n3C2CCC(=O)NC2=O)CC1 (stereo not shown) [I-318] | < 50 | > 1000
Cn1c(=O)n(C2CCC(=O)NC2=O)c2cccc(CN3CCC4(CCN(Cc5cccc(C#Cc6cc(NC(=O)Nc7cc(F)ncc7CO)ccn6)c5)CC4)CC3)c21 (stereo not shown) [I-319] | < 50 | > 1000
CN(Cc1cccc(C#Cc2cc(NC(=O)Nc3cc(F)ncc3CO)ccn2)c1)C1CCN(C(=O)c2cccc3c2n(C)c(=O)n3C2CCC(=O)NC2=O)CC1 (stereo not shown) [I-320] | < 50 | > 1000
Cc1ncsc1-c1ccc(CNC(=O)[C@@H]2C[C@@H](O)CN2C(=O)[C@@H](NC(=O)[C@H]2CC[C@@H](Cc3cnc(N4C5CCC4CN(c4cc(-c6ccccc6O)nnc4N)C5)nc3)CC2)C(C)(C)C)cc1 [I-367] | > 90 | < 100
Cc1ncsc1-c1ccc(CNC(=O)[C@@H]2C[C@@H](O)CN2C(=O)[C@@H](NC(=O)[C@H]2C[C@@H](N(C)Cc3cnc(N4C5CCC4CN(c4cc(-c6ccccc6O)nnc4N)C5)nc3)C2)C(C)(C)C)cc1 [I-370] | 70 to 90 | 100 to 500
Cc1ncsc1-c1ccc(CNC(=O)[C@@H]2C[C@@H](O)CN2C(=O)[C@@H](NC(=O)[C@H]2CC[C@@H](N(C)Cc3cnc(N4C5CCC4CN(c4cc(-c6ccccc6O)nnc4N)C5)nc3)CC2)C(C)(C)C)cc1 [I-371] | > 90 | 100 to 500
Cc1ncsc1-c1ccc(CNC(=O)[C@@H]2C[C@@H](O)CN2C(=O)[C@@H](NC(=O)[C@H]2CC[C@H](N(C)Cc3cnc(N4C5CCC4CN(c4cc(-c6ccccc6O)nnc4N)C5)nc3)CC2)C(C)(C)C)cc1 [I-372] | 50 to 70 | 501 to 1000
Cc1ncsc1-c1ccc(CNC(=O)[C@@H]2C[C@@H](O)CN2C(=O)[C@@H](NC(=O)[C@H]2CC[C@@H](CN3CCC(c4cnc(N5C6CCC5CN(c5cc(-c7ccccc7O)nnc5N)C6)nc4)CC3)CC2)C(C)(C)C)cc1 [I-373] | > 90 | 100 to 500
Cc1ncsc1-c1ccc(CNC(=O)[C@@H]2C[C@@H](O)CN2C(=O)[C@@H](NC(=O)[C@H]2C[C@@H](CN3CCC(c4cnc(N5C6CCC5CN(c5cc(-c7ccccc7O)nnc5N)C6)nc4)CC3)C2)C(C)(C)C)cc1 [I-374] | 70 to 90 | 100 to 500
Cc1ncsc1-c1ccc(CNC(=O)[C@@H]2C[C@@H](O)CN2C(=O)[C@@H](NC(=O)[C@H]2C[C@H](CN3CCC(c4cnc(N5C6CCC5CN(c5cc(-c7ccccc7O)nnc5N)C6)nc4)CC3)C2)C(C)(C)C)cc1 [I-376] | 50 to 70 | 501 to 1000

SMILES | Dmax [%] | DC50 [nM]
Cc1ncsc1-c1ccc(CNC(=O)[C@@H]2C[C@@H](O)CN2C(=O)[C@@H](NC(=O)[C@H]2CC[C@@H](CCCCCN3CCC(Cn4cc(-c5cc(-c6ccccc6O)nnc5N)cn4)CC3)CC2)C(C)(C)C)cc1 [I-377] | 70 to 90 | 100 to 500
Cc1ncsc1-c1ccc(CNC(=O)[C@@H]2C[C@@H](O)CN2C(=O)[C@@H](NC(=O)[C@H]2CC[C@@H](c3ccc(CN4CCC(Cn5cc(-c6cc(-c7ccccc7O)nnc6N)cn5)CC4)cc3)CC2)C(C)(C)C)cc1 [I-379] | > 90 | 100 to 500
Cc1ncsc1-c1ccc(CNC(=O)[C@@H]2C[C@@H](O)CN2C(=O)[C@@H](NC(=O)[C@H]2CC[C@H](c3ccc(CN4CCC(Cn5cc(-c6cc(-c7ccccc7O)nnc6N)cn5)CC4)cc3)CC2)C(C)(C)C)cc1 [I-380] | > 90 | 100 to 500
Cc1ncsc1-c1ccc(CNC(=O)[C@@H]2C[C@@H](O)CN2C(=O)[C@@H](NC(=O)C2CC3(CCN(CCN4CCC(Cn5cc(-c6cc(-c7ccccc7O)nnc6N)cn5)CC4)CC3)C2)C(C)(C)C)cc1 [I-381] | 50 to 70 | 501 to 1000
Cc1ncsc1-c1ccc(CNC(=O)[C@@H]2C[C@@H](O)CN2C(=O)[C@@H](NC(=O)C[C@H]2C[C@H](N3CCC(c4cnc(N5C6CCC5CN(c5cc(-c7ccccc7O)nnc5N)C6)nc4)CC3)C2)C(C)(C)C)cc1 [I-391] | > 90 | 100 to 500
Cc1ncsc1-c1ccc(CNC(=O)[C@@H]2C[C@@H](O)CN2C(=O)[C@@H](NC(=O)C[C@H]2C[C@@H](N3CCC(c4cnc(N5C6CCC5CN(c5cc(-c7ccccc7O)nnc5N)C6)nc4)CC3)C2)C(C)(C)C)cc1 [I-392] | 70 to 90 | 100 to 500
Cc1ncsc1-c1ccc(CNC(=O)[C@@H]2C[C@@H](O)CN2C(=O)[C@@H](NC(=O)[C@H]2CC[C@H](N3CC(c4cnc(N5C6CCC5CN(c5cc(-c7ccccc7O)nnc5N)C6)nc4)C3)CC2)C(C)(C)C)cc1 [I-393] | > 90 | 100 to 500
Cc1ncsc1-c1ccc(CNC(=O)[C@@H]2C[C@@H](O)CN2C(=O)[C@@H](NC(=O)C2CC3(CCN(Cc4cnc(N5C6CCC5CN(c5cc(-c7ccccc7O)nnc5N)C6)nc4)CC3)C2)C(C)(C)C)cc1 [I-394] | > 90 | 100 to 500
Cc1ncsc1-c1ccc(CNC(=O)[C@@H]2C[C@@H](O)CN2C(=O)[C@@H](NC(=O)[C@H]2CC[C@H](C(=O)N(C)Cc3cnc(N4C5CCC4CN(c4cc(-c6ccccc6O)nnc4N)C5)nc3)CC2)C(C)(C)C)cc1 [I-396] | 70 to 90 | 100 to 500
Cc1ncsc1-c1ccc(CNC(=O)[C@@H]2C[C@@H](O)CN2C(=O)[C@@H](NC(=O)[C@H]2CC[C@H](N3CCC(CN4CCC(Cn5cc(-c6cc(-c7ccccc7O)nnc6N)cn5)CC4)CC3)CC2)C(C)(C)C)cc1 [I-397] | < 50 | > 1000
Cc1ncsc1-c1ccc(CNC(=O)[C@@H]2C[C@@H](O)CN2C(=O)[C@@H](NC(=O)[C@H]2CC[C@H](CN3CCC(c4cnc(N5C6CCC5CN(c5cc(-c7ccccc7O)nnc5N)C6)nc4)CC3)CC2)C(C)(C)C)c(C(F)(F)F)c1 [I-398] | 50 to 70 | 501 to 1000
Cc1ncsc1-c1ccc(CNC(=O)[C@@H]2C[C@@H](O)CN2C(=O)[C@@H](NC(=O)[C@H]2CC[C@H](N3CCC(N4CCC(n5cc(-c6cc(-c7ccccc7O)nnc6N)cn5)CC4)CC3)CC2)C(C)(C)C)cc1 [I-400, (2S,4R)-1-((S)-2-((1r,4S)-4-(4-(4-(3-amino-6-(2-hydroxyphenyl)pyridazin-4-yl)-1H-pyrazol-1-yl)-[1,4′-bipiperidin]-1′-yl)cyclohexanecarboxamido)-3,3-dimethylbutanoyl)-4-hydroxy-N-(4-(4-methylthiazol-5-yl)benzyl)pyrrolidine-2-carboxamide] | 70 to 90 | 501 to 1000
Cc1ncsc1-c1ccc(CNC(=O)[C@@H]2C[C@@H](O)CN2C(=O)[C@@H](NC(=O)[C@@H]2CC3CCC2C[C@@H]3c2cnc(N3C4CCC3CN(c3cc(-c5ccccc5O)nnc3N)C4)nc2)C(C)(C)C)cc1 (stereo partly shown) [I-410] | > 90 | 100 to 500
Cc1ncsc1-c1ccc(CNC(=O)[C@@H]2C[C@@H](O)CN2C(=O)[C@@H](NC(=O)[C@H]2CC[C@@H](Cc3ccc(-c4cnc(N5C6CCC5CN(c5cc(-c7ccccc7O)nnc5N)C6)nc4)cc3)CC2)C(C)(C)C)cc1 [I-413] | 70 to 90 | 100 to 500
Cc1ncsc1-c1ccc(CNC(=O)[C@@H]2C[C@@H](O)CN2C(=O)[C@@H](NC(=O)C2CC3(C2)CC(N2CCC(c4cnc(N5C6CCC5CN(c5cc(-c7ccccc7O)nnc5N)C6)nc4)CC2)C3)C(C)(C)C)cc1 (stereo partly shown) [I-414] | > 90 | 100 to 500
Cc1ncsc1-c1ccc(CNC(=O)[C@@H]2C[C@@H](O)CN2C(=O)[C@@H](NC(=O)C2CC3(C2)CC(N(C)Cc2cnc(N4C5CCC4CN(c4cc(-c6ccccc6O)nnc4N)C5)nc2)C3)C(C)(C)C)cc1 (stereo partly shown) [I-416] | > 90 | 100 to 500
